SMILES strings stand for the structures.

The values below come from US11420973B2, “Amide substituted indole compounds useful as TLR inhibitors” (BRISTOL-MYERS SQUIBB COMPANY, priority 2017, dated 2022).

Experiment [1] concerns the target human TLR8 (Homo sapiens (Human), UniProt Q9NR97). The experiment can be described thus: TLR8 inhibition reporter assay (HEK-Blue SEAP reporter, R848 stimulation).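 Note: SEAP driven by IFN-β minimal promoter with NF-κB and AP-1 sites, 22 h incubation, compounds 0.05 nM–50 µM, inhibition scaled between agonist plus DMSO and reference inhibitor wells.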 The settings on record: read-out: TLR8 IC50; HEK-Blue cells overexpressing human TLR8, R848 15.9 μM, SEAP reporter.
Experiment [2] concerns the target human TLR7 (Homo sapiens (Human), UniProt Q9NYK1). The experiment can be described thus: TLR7 inhibition reporter assay (HEK-Blue SEAP reporter, gardiquimod stimulation). It is filed as cell-based. The following applies: HEK-Blue cells overexpressing human TLR7, gardiquimod 7.5 μM. A general note: Reporter assays use an easily measured gene product as a stand-in for the process of interest.
Description: HEK-Blue™-cells (Invivogen) overexpressing human TLR7, TLR8 or TLR9 receptors were used for screening inhibitors of these receptors using an inducible SEAP (secreted embryonic alkaline phosphatase) reporter gene under the control of the IFN-β minimal promoter fused to five NF-κB and AP-1-binding sites. Briefly, cells are seeded into Greiner 384 well plates (15000 cells per well for TLR7, 20,000 for TLR8 and 25,000 for TLR9) and then treated with test compounds in DMSO to yield a final dose response concentration range of 0.05 nM-50 μM. After a 30 minute compound pre-treatment at room temperature, the cells are then stimulated with a TLR7 ligand (gardiquimod at a final concentration of 7.5 μM), TLR8 ligand (R848 at a final concentration of 15.9 μM) or TLR9 ligand (ODN2006 at a final concentration of 5 nM) to activate NF-κB and AP-1 which induce the production of SEAP. After a 22 hour incubation at 37° C., 5% CO2, SEAP levels are determined with the addition of HEK-Blue™ Detection reagent (Invivogen), a cell culture medium that allows for detection of SEAP, according to manufacturer's specifications.

Experiment [3] concerns the target human TLR9 (Homo sapiens (Human), UniProt Q9NR96). The experiment can be described thus: TLR9 inhibition reporter assay (HEK-Blue SEAP reporter, ODN2006 stimulation).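 Note: SEAP reporter under IFN-β minimal promoter with five NF-κB and AP-1 sites, 22 h incubation, compounds 0.05 nM–50 µM, inhibition relative to agonist plus DMSO versus known inhibitor.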 The settings on record: read-out: TLR9 IC50; HEK-Blue cells overexpressing human TLR9, ODN2006 5 nM, SEAP reporter.

Chain of human TLR8 (Q9NR97 27-1041): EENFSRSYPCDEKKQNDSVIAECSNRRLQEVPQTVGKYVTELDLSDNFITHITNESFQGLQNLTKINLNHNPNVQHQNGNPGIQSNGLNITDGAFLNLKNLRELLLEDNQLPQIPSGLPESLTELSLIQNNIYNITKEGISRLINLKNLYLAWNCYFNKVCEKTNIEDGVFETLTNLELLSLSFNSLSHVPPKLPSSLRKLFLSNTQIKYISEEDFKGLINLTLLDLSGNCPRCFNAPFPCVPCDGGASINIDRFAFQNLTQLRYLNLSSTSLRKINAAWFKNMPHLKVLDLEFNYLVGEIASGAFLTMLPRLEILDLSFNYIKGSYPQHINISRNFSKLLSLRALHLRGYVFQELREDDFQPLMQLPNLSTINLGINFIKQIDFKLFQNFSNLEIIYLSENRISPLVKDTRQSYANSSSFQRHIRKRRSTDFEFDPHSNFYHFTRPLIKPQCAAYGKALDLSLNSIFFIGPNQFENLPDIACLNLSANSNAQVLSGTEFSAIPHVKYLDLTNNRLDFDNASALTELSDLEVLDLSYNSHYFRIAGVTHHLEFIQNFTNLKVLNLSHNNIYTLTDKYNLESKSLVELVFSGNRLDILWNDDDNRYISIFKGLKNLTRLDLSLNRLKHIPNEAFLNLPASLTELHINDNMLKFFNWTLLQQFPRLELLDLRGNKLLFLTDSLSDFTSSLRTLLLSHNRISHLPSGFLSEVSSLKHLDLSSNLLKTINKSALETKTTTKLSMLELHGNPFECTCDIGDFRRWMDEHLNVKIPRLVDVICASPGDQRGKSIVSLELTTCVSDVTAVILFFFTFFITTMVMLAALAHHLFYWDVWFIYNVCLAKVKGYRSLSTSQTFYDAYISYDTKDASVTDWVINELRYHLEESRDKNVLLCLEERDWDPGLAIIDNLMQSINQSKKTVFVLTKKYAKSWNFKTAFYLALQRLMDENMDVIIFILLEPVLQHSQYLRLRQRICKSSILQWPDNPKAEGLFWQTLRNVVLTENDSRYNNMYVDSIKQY
Chain of human TLR9 (Q9NR96 26-1032): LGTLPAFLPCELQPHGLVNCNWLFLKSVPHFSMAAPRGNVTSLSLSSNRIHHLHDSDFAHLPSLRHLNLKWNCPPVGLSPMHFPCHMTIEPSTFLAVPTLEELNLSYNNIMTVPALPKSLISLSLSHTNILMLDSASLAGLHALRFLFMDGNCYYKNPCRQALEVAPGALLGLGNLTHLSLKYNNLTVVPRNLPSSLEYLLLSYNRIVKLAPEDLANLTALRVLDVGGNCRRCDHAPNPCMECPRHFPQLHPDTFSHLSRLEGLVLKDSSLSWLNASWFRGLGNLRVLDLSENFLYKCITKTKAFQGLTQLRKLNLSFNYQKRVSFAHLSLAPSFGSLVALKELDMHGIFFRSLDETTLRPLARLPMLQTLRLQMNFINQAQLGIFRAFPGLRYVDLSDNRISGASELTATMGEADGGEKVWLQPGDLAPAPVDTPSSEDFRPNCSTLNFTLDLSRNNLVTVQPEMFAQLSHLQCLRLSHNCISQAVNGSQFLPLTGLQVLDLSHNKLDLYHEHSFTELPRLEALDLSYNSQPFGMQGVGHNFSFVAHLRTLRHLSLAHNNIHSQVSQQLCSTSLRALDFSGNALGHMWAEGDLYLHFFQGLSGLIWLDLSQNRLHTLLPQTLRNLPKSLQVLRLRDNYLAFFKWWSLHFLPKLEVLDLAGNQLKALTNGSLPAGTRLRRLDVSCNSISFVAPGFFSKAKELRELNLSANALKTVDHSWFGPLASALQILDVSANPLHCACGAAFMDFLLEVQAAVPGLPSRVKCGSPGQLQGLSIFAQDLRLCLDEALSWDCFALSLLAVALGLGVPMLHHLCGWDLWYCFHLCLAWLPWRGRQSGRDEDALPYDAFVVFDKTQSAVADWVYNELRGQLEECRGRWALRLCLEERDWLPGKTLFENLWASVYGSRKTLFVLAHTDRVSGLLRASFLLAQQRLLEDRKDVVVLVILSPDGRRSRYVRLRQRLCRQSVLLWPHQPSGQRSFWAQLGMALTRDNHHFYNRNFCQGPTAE
Chain of human TLR7 (Q9NYK1 27-1049): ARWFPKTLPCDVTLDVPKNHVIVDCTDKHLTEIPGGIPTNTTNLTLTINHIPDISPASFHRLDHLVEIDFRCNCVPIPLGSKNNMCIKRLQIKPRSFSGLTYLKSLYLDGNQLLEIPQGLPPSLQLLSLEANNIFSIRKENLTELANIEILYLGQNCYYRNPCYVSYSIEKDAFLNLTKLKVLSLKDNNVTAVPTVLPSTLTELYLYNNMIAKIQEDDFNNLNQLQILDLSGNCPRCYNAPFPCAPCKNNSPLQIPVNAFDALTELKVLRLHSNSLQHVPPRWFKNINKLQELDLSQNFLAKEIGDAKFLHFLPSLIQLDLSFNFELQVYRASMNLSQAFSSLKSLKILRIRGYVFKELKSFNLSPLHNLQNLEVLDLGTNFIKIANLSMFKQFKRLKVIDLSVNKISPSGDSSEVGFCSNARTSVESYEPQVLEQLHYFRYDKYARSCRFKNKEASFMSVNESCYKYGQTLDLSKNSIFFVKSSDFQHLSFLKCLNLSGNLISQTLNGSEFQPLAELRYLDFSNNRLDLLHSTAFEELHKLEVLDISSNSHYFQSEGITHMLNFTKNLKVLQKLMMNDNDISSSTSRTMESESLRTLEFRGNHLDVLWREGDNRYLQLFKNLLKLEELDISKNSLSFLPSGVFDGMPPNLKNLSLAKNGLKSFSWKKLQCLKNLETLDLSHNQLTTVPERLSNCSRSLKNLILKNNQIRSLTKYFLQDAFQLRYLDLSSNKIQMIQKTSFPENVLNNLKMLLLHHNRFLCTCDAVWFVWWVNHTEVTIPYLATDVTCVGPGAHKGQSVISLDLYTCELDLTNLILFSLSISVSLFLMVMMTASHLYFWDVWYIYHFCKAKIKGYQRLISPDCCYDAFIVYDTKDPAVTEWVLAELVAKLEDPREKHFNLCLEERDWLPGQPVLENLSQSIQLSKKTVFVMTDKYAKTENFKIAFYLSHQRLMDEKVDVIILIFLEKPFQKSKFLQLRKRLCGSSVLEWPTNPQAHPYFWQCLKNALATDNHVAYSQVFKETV

By IC50 is commonly meant the concentration that inhibits the measured activity by half. For the compound `Cc1cc(-c2[nH]c3ccc(C(C)(C)C(=O)N4CCC5(CCN(C)C5)CC4)cc3c2C(C)C)ccn1` [Example 150, 2-(3-isopropyl-2-(2-methylpyridin-4-yl)-1H-indol-5-yl)-2-methyl-1-(2-methyl-2,8-diazaspiro[4.5]decan-8-yl)propan-1-one], the IC50 in experiment [1] was found to be 141 nM; in experiment [2], 22 nM; in experiment [3], 1490 nM.
For `Cc1cc(-c2[nH]c3ccc(C(C)(C)C(=O)N4CCC(CN)C4)cc3c2C(C)C)ccn1` (stereo not drawn) [Example 151, 1-(3-(aminomethyl)pyrrolidin-1-yl)-2-(3-isopropyl-2-(2-methylpyridin-4-yl)-1H-indol-5-yl)-2-methylpropan-1-one], the IC50 was 175 nM in experiment [1], 72 nM in experiment [2] and 7090 nM in experiment [3].
On to `Cc1cc(-c2[nH]c3ccc(C(C)(C)C(=O)N4CCCC5(CCCCC5N)C4)cc3c2C(C)C)ccn1` (stereo not drawn) [Example 152, 1-(7-amino-2-azaspiro[5.5]undecan-2-yl)-2-(3-isopropyl-2-(2-methylpyridin-4-yl)-1H-indol-5-yl)-2-methylpropan-1-one], for which the IC50 in experiment [1] is 46 nM; in experiment [2], 31 nM; in experiment [3] it was 2640 nM.
For `Cc1cc(-c2[nH]c3ccc(C(C)(C)C(=O)N4CCC(N)CC4)cc3c2C(C)C)ccn1` [Example 153, 1-(4-aminopiperidin-1-yl)-2-(3-isopropyl-2-(2-methylpyridin-4-yl)-1H-indol-5-yl)-2-methylpropan-1-one], the IC50 in experiment [1] is 91 nM; in experiment [2], 159 nM; in experiment [3], 566 nM.
On the same counts, the results for `Cc1cc(-c2[nH]c3ccc(C(C)(C)C(=O)N4CCC[C@H](N)C4)cc3c2C(C)C)ccn1` [Example 155, (S)-1-(3-aminopiperidin-1-yl)-2-(3-isopropyl-2-(2-methylpyridin-4-yl)-1H-indol-5-yl)-2-methylpropan-1-one] are 143 nM, 113 nM and 2040 nM.
On to `Cc1cc(-c2[nH]c3ccc(C(C)(C)C(=O)N4CCCC(CN)C4)cc3c2C(C)C)ccn1` (stereo not drawn) [Example 156, 1-(3-(aminomethyl)piperidin-1-yl)-2-(3-isopropyl-2-(2-methylpyridin-4-yl)-1H-indol-5-yl)-2-methylpropan-1-one], for which the IC50 is 52 nM in experiment [1], 53 nM in experiment [2] and 927 nM in experiment [3].
In the same order, the values of `Cc1cc(-c2[nH]c3ccc(C(C)(C)C(=O)N4CCCCC4CN)cc3c2C(C)C)ccn1` (stereo not drawn) [Example 157, 1-(2-(aminomethyl)piperidin-1-yl)-2-(3-isopropyl-2-(2-methylpyridin-4-yl)-1H-indol-5-yl)-2-methylpropan-1-one] are 28 nM, 6.3 nM and 997 nM.
In the case of `Cc1cc(-c2[nH]c3ccc(C(C)(C)C(=O)N4CCC(CN)CC4)cc3c2C(C)C)ccn1` [Example 158, 1-(4-(aminomethyl)piperidin-1-yl)-2-(3-isopropyl-2-(2-methylpyridin-4-yl)-1H-indol-5-yl)-2-methylpropan-1-one], the IC50 came to 500 nM in experiment [1], 79 nM in experiment [2] and 3030 nM in experiment [3].
For the compound `Cc1cc(-c2[nH]c3ccc(C(C)(C)C(=O)NCC4CCCCN4)cc3c2C(C)C)ccn1` (stereo not drawn) [Example 159, 2-(3-isopropyl-2-(2-methylpyridin-4-yl)-1H-indol-5-yl)-2-methyl-N-(piperidin-2-ylmethyl)propanamide], the IC50 in experiment [1] worked out at 18 nM; in experiment [2], 139 nM; in experiment [3], 855 nM.
On the same counts, the results for `Cc1cc(-c2[nH]c3ccc(C(C)(C)C(=O)NC[C@H]4CCNC4)cc3c2C(C)C)ccn1` [Example 160, (S)-2-(3-isopropyl-2-(2-methylpyridin-4-yl)-1H-indol-5-yl)-2-methyl-N-(pyrrolidin-3-ylmethyl)propanamide] are 1030 nM, 164 nM and 5090 nM.
On to `Cc1cc(-c2[nH]c3ccc(C(C)(C)C(=O)N(C)C4CCCNC4)cc3c2C(C)C)ccn1` (stereo not drawn) [Example 161, 2-(3-isopropyl-2-(2-methylpyridin-4-yl)-1H-indol-5-yl)-N,2-dimethyl-N-(piperidin-3-yl)propanamide], for which the IC50 in experiment [1] was determined as 31 nM; in experiment [2], 42 nM; in experiment [3], 1740 nM.
On the same counts, the results for `Cc1cc(-c2[nH]c3ccc(C(C)(C)C(=O)N(C)C4CN5CCC4CC5)cc3c2C(C)C)ccn1` (stereo not drawn) [Example 162, 2-(3-isopropyl-2-(2-methylpyridin-4-yl)-1H-indol-5-yl)-N,2-dimethyl-N-(quinuclidin-3-yl)propanamide] are 135 nM, 24 nM and 3520 nM.
On to `Cc1cc(-c2[nH]c3ccc(C(C)(C)C(=O)NCC4CCCNC4)cc3c2C(C)C)ccn1` (stereo not drawn) [Example 163, 2-(3-isopropyl-2-(2-methylpyridin-4-yl)-1H-indol-5-yl)-2-methyl-N-(piperidin-3-ylmethyl)propanamide], for which the results for the IC50 in experiment [1], in experiment [2] and in experiment [3] were 676 nM, 238 nM and 1880 nM, respectively.
On the same counts, the results for `Cc1cc(-c2[nH]c3ccc(C(C)(C)C(=O)NCC4CCNCC4)cc3c2C(C)C)ccn1` [Example 164, 2-(3-isopropyl-2-(2-methylpyridin-4-yl)-1H-indol-5-yl)-2-methyl-N-(piperidin-4-ylmethyl)propanamide] are 617 nM, 331 nM and 2530 nM.
In the same order, the values of `Cc1cc(-c2[nH]c3ccc(C(C)(C)C(=O)N(C)C4CCNCC4)cc3c2C(C)C)ccn1` [Example 165, 2-(3-isopropyl-2-(2-methylpyridin-4-yl)-1H-indol-5-yl)-N,2-dimethyl-N-(piperidin-4-yl)propanamide] are 63 nM, 61 nM and 908 nM.
In the same order, the values of `Cc1cc(-c2[nH]c3ccc(C(C)(C)C(=O)NC4C[C@H]5CC[C@@H](C4)N5C)cc3c2C(C)C)ccn1` (stereo partly drawn) [Example 166, 2-(3-isopropyl-2-(2-methylpyridin-4-yl)-1H-indol-5-yl)-2-methyl-N-((1R,5S)-8-methyl-8-azabicyclo[3.2.1]octan-3-yl)propanamide] are 135 nM, 22 nM and 8230 nM.
Consider `Cc1cc(-c2[nH]c3ccc(C(C)(C)C(=O)NC4CCC(N)CC4)cc3c2C(C)C)ccn1` (stereo not drawn) [Example 167, N-(4-aminocyclohexyl)-2-(3-isopropyl-2-(2-methylpyridin-4-yl)-1H-indol-5-yl)-2-methylpropanamide], for which the IC50 in experiment [1] is 36 nM; in experiment [2] it was 63 nM; in experiment [3] it was 2900 nM.
On to `Cc1cc(-c2[nH]c3ccc(C(C)(C)C(=O)NC4CCCC(N)C4)cc3c2C(C)C)ccn1` (stereo not drawn) [Example 168, N-(3-aminocyclohexyl)-2-(3-isopropyl-2-(2-methylpyridin-4-yl)-1H-indol-5-yl)-2-methylpropanamide], for which the IC50 in experiment [1] was 44 nM; in experiment [2], 96 nM; in experiment [3], 2670 nM.
On the same counts, the results for `Cc1cc(-c2[nH]c3ccc(C(C)(C)C(=O)N[C@@H]4CCCC[C@H]4N)cc3c2C(C)C)ccn1` [Example 169, N—((R,2R)-2-aminocyclohexyl)-2-(3-isopropyl-2-(2-methylpyridin-4-yl)-1H-indol-5-yl)-2-methylpropanamide] are 7.1 nM, 16 nM and 899 nM.
For `Cc1cc(-c2[nH]c3ccc(C(C)(C)C(=O)N[C@H]4CCCC[C@H]4N)cc3c2C(C)C)ccn1` [Example 170, N-((1S,2R)-2-aminocyclohexyl)-2-(3-isopropyl-2-(2-methylpyridin-4-yl)-1H-indol-5-yl)-2-methylpropanamide], the IC50 in experiment [1] worked out at 51 nM; in experiment [2], 11 nM; in experiment [3] it was 1660 nM.
As for `Cc1cc(-c2[nH]c3ccc(C(C)(C)C(=O)NCCC4CCCNC4)cc3c2C(C)C)ccn1` (stereo not drawn) [Example 171, 2-(3-isopropyl-2-(2-methylpyridin-4-yl)-1H-indol-5-yl)-2-methyl-N-(2-(piperidin-3-yl)ethyl)propanamide], the values for the IC50 in experiment [1], in experiment [2] and in experiment [3] were 602 nM, 67 nM and 5220 nM, respectively.
Turning to `Cc1cc(-c2[nH]c3ccc(C(C)(C)C(=O)NC[C@H]4CC[C@H](N)CC4)cc3c2C(C)C)ccn1` [Example 172, N-(((1r,4r)-4-aminocyclohexyl)methyl)-2-(3-isopropyl-2-(2-methylpyridin-4-yl)-1H-indol-5-yl)-2-methylpropanamide], the results for the IC50 in experiment [1], in experiment [2] and in experiment [3] were 325 nM, 58 nM and 1800 nM, respectively.
On to `Cc1cc(-c2[nH]c3ccc(C(C)(C)C(=O)NCC4(O)CCN(C)CC4)cc3c2C(C)C)ccn1` [Example 173, N-((4-hydroxy-1-methylpiperidin-4-yl)methyl)-2-(3-isopropyl-2-(2-methylpyridin-4-yl)-1H-indol-5-yl)-2-methylpropanamide], for which the IC50 in experiment [1] is 150 nM; in experiment [2], 57 nM; in experiment [3], 691 nM.
Turning to `Cc1cc(-c2[nH]c3ccc(C(C)(C)C(=O)NCC4(O)CN5CCC4CC5)cc3c2C(C)C)ccn1` (stereo not drawn) [Example 174, N-((3-hydroxyquinuclidin-3-yl)methyl)-2-(3-isopropyl-2-(2-methylpyridin-4-yl)-1H-indol-5-yl)-2-methylpropanamide], the IC50 worked out at 550 nM in experiment [1], 54 nM in experiment [2] and 2060 nM in experiment [3].
On the same counts, the results for `Cc1cc(-c2[nH]c3ccc(C(C)(C)C(=O)N4CCNCC4)cc3c2C(C)C)ccn1` [Example 175, 2-(3-isopropyl-2-(2-methylpyridin-4-yl)-1H-indol-5-yl)-2-methyl-1-(piperazin-1-yl)propan-1-one] are 36 nM, 167 nM and 1010 nM.
